Data set [1] concerns the target T1, ICE (interleukin-1β converting enzyme, Caspase-1) (Homo sapiens, UniProt P29466).
T1 sequence (P29466 120-297 limits assumed): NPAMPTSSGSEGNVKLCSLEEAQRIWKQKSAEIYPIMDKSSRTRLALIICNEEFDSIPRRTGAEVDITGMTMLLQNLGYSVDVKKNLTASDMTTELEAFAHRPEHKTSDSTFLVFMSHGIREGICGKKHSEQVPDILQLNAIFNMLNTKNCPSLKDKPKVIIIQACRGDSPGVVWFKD
T1 sequence (P29466 317-404 limits assumed): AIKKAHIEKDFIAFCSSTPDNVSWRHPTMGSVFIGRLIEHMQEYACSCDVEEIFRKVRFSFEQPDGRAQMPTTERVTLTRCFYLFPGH
As to the kind of experiment: ICE Colorimetric Dose-Response (IC50) Assay. The data set is classed as biochemical. The following applies: ICE approx. 24 nM, 60 min preincubation, 50 μM Ac-Tyr-Val-Ala-Asp-pNA, 25° C. As to the method:
ICE Colorimetric Dose-Response (IC50) Assay
(§1) Diluted inhibitor stocks are prepared by two-fold serial dilution from a primary stock whose concentration is selected (based on screening results or on prior attempts at IC50 evaluation) to achieve approximately 95% inhibition in the most concentrated well. Aliquots of each dilution are transferred to a microtitre plate in triplicate.
(§2) ICE enzyme is diluted to approximately 24 nM in HGE buffer (100 mM HEPES pH 7.5, 0.5 mM EDTA, 20% glycerol, 0.1% Bovine Serum Albumin (BSA)), and activated by adding dithiothreitol (DTT) to a final concentration of 5 mM. The activated enzyme is then aliquoted into wells containing inhibitor or vehicle, and the plate is preincubated for 60 minutes at ambient temperature. Substrate (Ac-Tyr-Val-Ala-Asp-pNA) is added to each well to a final concentration of 50 μM, and plates are placed in the microtitre plate-reader thermostated to 25° C. Beginning 5 minutes after addition of substrate, absorbance (405 nm) of wells is monitored for 1 hour, and activity is calculated as the mean rate of change in absorbance during this interval.

The target of another data set is T2, Ich-2 (Caspase-4) (Homo sapiens, UniProt P49662).
T2 sequence (P49662 81-270 limits assumed): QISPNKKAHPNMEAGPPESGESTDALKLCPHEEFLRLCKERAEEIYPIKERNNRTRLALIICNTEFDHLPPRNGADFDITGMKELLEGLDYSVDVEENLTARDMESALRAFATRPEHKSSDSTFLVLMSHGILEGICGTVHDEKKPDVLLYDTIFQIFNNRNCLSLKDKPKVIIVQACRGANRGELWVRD
T2 sequence (P49662 290-377 limits assumed): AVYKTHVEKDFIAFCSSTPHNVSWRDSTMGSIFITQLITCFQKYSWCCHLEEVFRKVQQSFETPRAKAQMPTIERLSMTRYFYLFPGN
As to the kind of experiment: Ich-2 (Caspase-4) Colorimetric Dose-Response (IC50) Assay. The class given is biochemical. The note with it: enzyme 64 nM, substrate Ac-Leu-Glu-Val-Asp-pNA. The procedure: as §1, §2
Ich-2 (Caspase-4) Colorimetric Dose-Response (IC50) Assay
Inhibition of Ich-2 enzyme is assayed as described above for ICE, except that enzyme is used at 64 nM, and 60 µM of the Ich-2-specific substrate Ac-Leu-Glu-Val-Asp-pNA is used instead of the ICE substrate Ac-Tyr-Val-Ala-Asp-pNA.

The target in data set [2] is T1, ICE (interleukin-1β converting enzyme, Caspase-1). As to the kind of experiment: ICE Ki fluorescence assay (Ac-Tyr-Val-Ala-Asp-AMC hydrolysis). The class given is biochemical. The note with it: ICE 0.24 nM, 15 μM Ac-Tyr-Val-Ala-Asp-AMC, reversible competitive model. The procedure: Substrate hydrolysis is monitored for 300 seconds by observing the fluorescence of released AMC using excitation at 380 nm and emission at 460 nm. Mean rates of substrate hydrolysis are evaluated by linear-regression analysis of the fluorescence vs time traces. To evaluate Ki, plots of percent inhibition vs inhibitor concentration are fit by non-linear regression to a reversible, competitive model: [formula]
Where the competition factor (1+[S]/KM)=2.

pIC50, pKi: −log10 of the molar value. “And” between values parts separate entries of the source, which are not always exact repeats. Equal values may be shown once.

Consider `CC(C)C(NC(=O)C(CCC(=O)O)NC(=O)OCc1ccccc1)C(=O)NC(CC(=O)O)C(=O)CNS(=O)(=O)CC12CCC(CC1=O)C2(C)C` (stereo not shown) [Example 4f, 3-[2-(2-Benzyloxycarbonylamino-4-carboxy-butyrylamino)-3-methyl-butyrylamino]-5-(7,7-dimethyl-2-oxo-bicyclo[2.2.1]hept-1-ylmethanesulfonylamino)-4-oxo-pentanoic acid], for which the pIC50 – broadly, −log10 of the IC50, conventionally taken in molar units – in data set [1] was 8.70; on Ich-2 (Caspase-4), 5.49. The pKi (usually the Ki on a negative log10 scale, so that one unit is a factor of ten) in data set [2] was 9.21.
The like results for `CC1(C)C2CCC1(CS(=O)(=O)NCC(=O)C(CC(=O)O)NC(=O)OCc1ccccc1)C(=O)C2` [Example 2l, 3-Benzyloxycarbonylamino-5-(7.7-dimethyl-2-oxo-bicyclo[2.2.1]hept-1-(S)-ylmethanesulfonylamino)-4-oxo-pentanoic acid] were, in that order, 4.55, 3.03 and 5.85.
Consider `O=C(O)CC(NC(=O)OCc1ccccc1)C(=O)CNS(=O)(=O)CCCc1ccccc1` (stereo not shown) [Example 2b, 3-Benzloxycarbonylamino-4-oxo-5-(3-phenylpropane-1-sulfonylamino)-pentanoic acid], for which the melting point – broadly, the temperature of the solid-liquid transition – is 96 to 104 °C. Also, the pIC50 in data set [1] is 3.61. This compound had a pIC50 against Ich-2 (Caspase-4) of 2.07. Further, in data set [2], the pKi was 4.46 and 4.49.
As for `CC(=O)NC(Cc1ccc(O)cc1)C(=O)NC(CCC(=O)O)C(=O)NC(C(=O)NC(CC(=O)O)C(=O)CNS(=O)(=O)CCc1ccccc1)C(C)C` (stereo not shown) [Example 3d], the pIC50 was 8.52 in data set [1] and 6.05 against Ich-2 (Caspase-4). The same compound showed a negative logarithm of the Ki (pKi) in data set [2] of 8.11.
The like results for `CC(NC(=O)C(NC(=O)OCc1ccccc1)C(C)C)C(=O)NC(CC(=O)O)C(=O)CNS(=O)(=O)CCc1ccccc1` (stereo not shown) [Example 3a, 3-[2-(2-Benzyloxycarbonylamino-3-methyl-butyrylamino)-propionylamino]-4-oxo-5-(2-phenyl-ethanesulfonylamino)-pentanoic acid] were, in that order, 7.14, 4.74 and 8.15.

These data come from US20020156094A1, “Sulfonamide interleukin-1beta converting enzyme inhibitors” (Warner-Lambert Company, priority 1996, published 2002).
